The record followed here is patent US9206168B2, “(2-heteroarylamino) succinic acid derivatives” (Daiichi Sankyo Company, Limited, priority 2012, dated 2015).

Where a name gives a salt, the structure may show the parent alone.

This experiment concerns human liver cancer-derived cell line Hep3B. As to the kind of experiment: In vitro erythropoietin (EPO) induction activity in Hep3B cells (EPO ELISA of culture supernatant). In kind it is cell-based. The settings on record: test compound 12.5 μM, 32 hours at 37° C., multiple of the EPO concentration in the control (0.5% DMSO). Here is the method: In vitro erythropoietin (EPO) induction activity of test compounds was evaluated using human liver cancer-derived cell line Hep3B (ATCC, Manassas, Va.). Hep3B cells were cultured overnight at 37° C. in Dulbecco's modified Eagle's medium (DMEM) in the presence of 10% fetal bovine serum (FBS) (24-well plate, 1.0×10^5 cells/well). After replacing with fresh DMEM (+10% FBS) containing a test compound dissolved in 0.5% dimethyl sulfoxide (DMSO) (prepared to a concentration of 12.5 μM) or a solvent control (0.5% DMSO), the cells were cultured for 32 hours at 37° C. After recovering the culture supernatant, EPO concentration in the culture supernatant was quantified using human EPO ELISA kits (StemCell Technologies).
The EPO concentration using a compound of each example as a test compound was expressed as a multiple of the EPO concentration in the control.
The compound `O=C(O)CCC(=O)Nc1ncc(C(=O)NCc2cccc(C(F)(F)F)c2)c(O)n1` [Example 11, 4-[(4-Hydroxy-5-{[3-(trifluoromethyl)phenyl]methylcarbamoyl}pyrimidin-2-yl)amino]-4-oxobutanoic acid] showed a fold induction at 12.5 µM of 7.5. The figure for `O=C(O)CCC(=O)Nc1ncc(C(=O)NCc2ccc(F)c(-c3ccccc3)c2)c(O)n1` [Example 5, 4-({5-[(4-Fluoro-3-phenylphenyl)methylcarbamoyl]-4-hydroxypyrimidin-2-yl}amino)-4-oxobutanoic acid] is 6.3; for `O=C(O)CCC(=O)Nc1ncc(C(=O)NCc2cccc(F)c2)c(O)n1` [Example 12, 4-({5-[(3-Fluorophenyl)methylcarbamoyl]-4-hydroxypyrimidin-2-yl}amino)-4-oxobutanoic acid] it is 7.2; for `COc1ccc(C(NC(=O)c2cnc(NC(=O)CCC(=O)O)nc2O)C2CCOCC2)cn1` (stereo not drawn) [Example 9, 4-[(4-Hydroxy-5-{[(6-methoxypyridin-3-yl)(tetrahydro-2H-pyran-4-yl)methyl]carbamoyl}pyrimidin-2-yl)amino]-4-oxobutanoic acid trifluoroacetate] it is 16.

`O=C(O)CCC(=O)Nc1ncc(C(=O)NCc2ccc(F)c(F)c2)c(O)n1` [Example 13, 4-({5-[(3,4-Difluorophenyl)methylcarbamoyl]-4-hydroxypyrimidin-2-yl}amino)-4-oxobutanoic acid] came in with a fold induction at 12.5 µM of 13.

As to `O=C(O)CCC(=O)Nc1ncc(C(=O)NCc2cccc(C3CCCC3)c2)c(O)n1` [Example 17, 4-({5-[(3-Cyclopentylphenyl)methylcarbamoyl]-4-hydroxypyrimidin-2-yl}amino)-4-oxobutanoic acid], the fold induction at 12.5 µM came to 4.4.

In the case of `O=C(O)CCC(=O)Nc1ncc(C(=O)NCc2cccc(-c3ccccc3)c2)c(O)n1` [Example 6, 4-({4-Hydroxy-5-[(3-phenylphenyl)methylcarbamoyl]pyrimidin-2-yl}amino)-4-oxobutanoic acid], the fold induction at 12.5 µM is 3.7. The figure for `O=C(O)CCC(=O)Nc1ncc(C(=O)NCc2ccc(Cl)cc2Cl)c(O)n1` [Example 1, 4-({5-[(2,4-Dichlorophenyl)methylcarbamoyl]-4-hydroxypyrimidin-2-yl}amino)-4-oxobutanoic acid] is 3.6; for `O=C(O)CCC(=O)Nc1ncc(C(=O)NCc2ccc(F)cc2Cl)c(O)n1` [Example 3, 4-({5-[(2-Chloro-4-fluorophenyl)methylcarbamoyl]-4-hydroxypyrimidin-2-yl}amino)-4-oxobutanoic acid] it is 9.5. The figure for `Cc1cccc(CNC(=O)c2cnc(NC(=O)CCC(=O)O)nc2O)c1` [Example 14, 4-{[4-Hydroxy-5-(m-tolylmethylcarbamoyl)pyrimidin-2-yl]amino}-4-oxobutanoic acid] is 3. Compound `O=C(O)CCC(=O)Nc1ncc(C(=O)NCc2ccc(F)cc2F)c(O)n1` [Example 2, 4-({5-[(2,4-Difluorophenyl)methylcarbamoyl]-4-hydroxypyrimidin-2-yl}amino)-4-oxobutanoic acid] displayed a fold induction at 12.5 µM of 7.9. The figure for `COc1ccc(-c2ccc(C(C)(C)NC(=O)c3cnc(NC(=O)CCC(=O)O)nc3O)cn2)cc1` [Example 10, 4-{[4-Hydroxy-5-({1-[6-(4-methoxyphenyl)pyridin-3-yl]-1-methylethyl}carbamoyl)pyrimidin-2-yl]amino}-4-oxobutanoic acid trifluoroacetate] is 10.
